Test results taken from ChEMBL document CHEMBL1201862, “PubChem BioAssay data set” (2004).
Calls of active or inactive are those of the source.

Legend:
[1] = A High Throughput Confirmatory Assay used to Identify Novel Compounds that Inhibit Mycobacterium Tuberculosis in the absence of Glycerol.; assay type: functional
cells [2] = assay: cells
[3] = HEp-2 cell cytotoxicity, dose response, cytotoxicity control for RSV inhibitor project, HTS (AID 2410); assay type: functional; settings: human respiratory syncytial virus
Cytochrome P450 2D6 = Cytochrome P450 2D6 (Homo sapiens, UniProt P10635); assay: qHTS Assay for Inhibitors and Substrates of Cytochrome P450 2D6. [Related pubchem assays: 410 ]; assay type: ADME; settings: read-out: Potency
Chain of Cytochrome P450 2D6 (P10635 whole entry): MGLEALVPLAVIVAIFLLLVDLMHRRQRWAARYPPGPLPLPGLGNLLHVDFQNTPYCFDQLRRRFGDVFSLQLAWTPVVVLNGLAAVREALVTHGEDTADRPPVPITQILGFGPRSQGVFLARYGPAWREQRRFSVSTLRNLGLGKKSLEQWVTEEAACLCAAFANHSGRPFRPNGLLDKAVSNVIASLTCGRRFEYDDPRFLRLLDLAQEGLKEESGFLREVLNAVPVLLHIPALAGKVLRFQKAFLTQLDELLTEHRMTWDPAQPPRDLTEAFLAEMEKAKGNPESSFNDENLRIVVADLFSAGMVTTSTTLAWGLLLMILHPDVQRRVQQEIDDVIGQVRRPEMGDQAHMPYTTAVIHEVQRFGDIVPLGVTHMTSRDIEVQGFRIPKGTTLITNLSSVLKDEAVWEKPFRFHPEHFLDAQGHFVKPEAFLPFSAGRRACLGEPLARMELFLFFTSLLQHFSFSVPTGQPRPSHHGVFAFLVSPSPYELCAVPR

[4] = target: Acyl-homoserine lactone acylase PvdQ (Pseudomonas aeruginosa (strain LESB58), UniProt Q9I194); assay: P. aeruginosa PvdQ acylase inhibitors, dose response, biochemical, fluorescence, plate reader and imaging, cherry-picks (AID 493231)
[5] = target: T1, Mannose-6-phosphate isomerase (Homo sapiens, UniProt P34949); assay: human PMI inhibitors, high substrate, primary screen, biochemical, fluorescence intensity, high mannose 6-phosphate (AID 1220)
T1 sequence (P34949 whole entry): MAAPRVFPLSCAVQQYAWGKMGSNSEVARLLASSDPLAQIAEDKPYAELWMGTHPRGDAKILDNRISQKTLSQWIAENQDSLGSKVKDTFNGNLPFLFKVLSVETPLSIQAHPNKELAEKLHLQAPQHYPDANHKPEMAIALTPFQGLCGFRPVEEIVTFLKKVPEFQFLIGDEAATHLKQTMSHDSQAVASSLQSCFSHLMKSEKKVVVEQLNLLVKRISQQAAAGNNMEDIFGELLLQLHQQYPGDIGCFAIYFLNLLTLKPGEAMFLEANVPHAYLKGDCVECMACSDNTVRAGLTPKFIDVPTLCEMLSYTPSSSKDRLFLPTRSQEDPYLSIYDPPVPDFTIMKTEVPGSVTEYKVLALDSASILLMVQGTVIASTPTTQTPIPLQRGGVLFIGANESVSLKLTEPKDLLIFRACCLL

[6] = target: T1, Mannose-6-phosphate isomerase; assay: inhibitors of human PMI, primary screen, biochemical, fluorescence intensity, coupled assay (AID 1209)
[7] = A cytotoxicity screen of small molecule inhibitors of the PhoP region in Salmonella typhi identified in the primary screen. [Related pubchem assays: 1850, 1864, 1985 ]; assay type: functional
[8] = target: T2, Neuropeptide Y receptor type 1 (Homo sapiens, UniProt P25929); assay: NPY-Y1 receptor antagonist potency, dose response, cell-based (AID 1277); assay type: functional
T2 sequence (P25929 whole entry): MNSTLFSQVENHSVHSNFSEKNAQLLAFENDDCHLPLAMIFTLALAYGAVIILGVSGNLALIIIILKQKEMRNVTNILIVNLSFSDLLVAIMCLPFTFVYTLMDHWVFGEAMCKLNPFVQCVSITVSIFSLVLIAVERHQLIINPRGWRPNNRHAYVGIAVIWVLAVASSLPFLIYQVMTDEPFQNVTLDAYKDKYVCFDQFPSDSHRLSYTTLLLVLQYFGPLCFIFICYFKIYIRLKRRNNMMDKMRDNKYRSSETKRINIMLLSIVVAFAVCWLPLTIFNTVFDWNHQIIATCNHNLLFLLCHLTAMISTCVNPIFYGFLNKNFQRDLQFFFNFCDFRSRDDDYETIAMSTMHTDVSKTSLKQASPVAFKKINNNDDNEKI

[9] = target: T3, Neuropeptide Y receptor type 2 (Homo sapiens, UniProt P49146); assay: NPY-Y2 antagonist potency, selectivity check, dose response, counter-screen for NPY-Y1 antagonist project, cell-based (AID 1278); assay type: functional
T3 sequence (P49146 whole entry): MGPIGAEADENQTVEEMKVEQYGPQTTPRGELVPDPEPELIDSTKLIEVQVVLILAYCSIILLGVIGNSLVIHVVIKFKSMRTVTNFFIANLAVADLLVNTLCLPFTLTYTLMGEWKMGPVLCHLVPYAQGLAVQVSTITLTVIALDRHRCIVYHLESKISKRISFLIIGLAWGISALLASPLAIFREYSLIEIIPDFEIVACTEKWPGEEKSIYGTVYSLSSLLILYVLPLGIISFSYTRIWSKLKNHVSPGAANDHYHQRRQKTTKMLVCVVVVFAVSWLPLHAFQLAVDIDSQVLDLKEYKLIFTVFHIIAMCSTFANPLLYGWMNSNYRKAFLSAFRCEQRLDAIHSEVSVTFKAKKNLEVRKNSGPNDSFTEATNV

H4 = assay: Luminescence Cell-Based Dose Response HTS to Identify Activators of 5'UTR Stem-Loop Driven Prion Protein mRNA Translation in H4 Neuroglioblastoma Cells. [Related pubchem assays: 1829 (Project Summary), 1814 (Primary HTS)]; assay type: functional; settings: Homo sapiens
[10] = Luminescence Cell-Based Dose Confirmation HTS to Identify Activators of 5'UTR Stem-Loop Driven Alpha-Synuclein mRNA Translation in H4 Neuroglioblastoma Cells. [Related pubchem assays: 1829 (Project Summary), 1814 (Primary HTS)]; assay type: functional
[11] = Luminescence Cell-Based Dose Response HTS to Identify Activators of Luciferase Translation or Activity in H4 […] Cells. [Related pubchem assays: 1829 (Project Summary), 1814 (Primary HTS)]; assay type: functional
Protein skinhead-1 = target: T4, Protein skinhead-1 (Caenorhabditis elegans, UniProt P34707); assay type: functional
T4 sequence (P34707 whole entry): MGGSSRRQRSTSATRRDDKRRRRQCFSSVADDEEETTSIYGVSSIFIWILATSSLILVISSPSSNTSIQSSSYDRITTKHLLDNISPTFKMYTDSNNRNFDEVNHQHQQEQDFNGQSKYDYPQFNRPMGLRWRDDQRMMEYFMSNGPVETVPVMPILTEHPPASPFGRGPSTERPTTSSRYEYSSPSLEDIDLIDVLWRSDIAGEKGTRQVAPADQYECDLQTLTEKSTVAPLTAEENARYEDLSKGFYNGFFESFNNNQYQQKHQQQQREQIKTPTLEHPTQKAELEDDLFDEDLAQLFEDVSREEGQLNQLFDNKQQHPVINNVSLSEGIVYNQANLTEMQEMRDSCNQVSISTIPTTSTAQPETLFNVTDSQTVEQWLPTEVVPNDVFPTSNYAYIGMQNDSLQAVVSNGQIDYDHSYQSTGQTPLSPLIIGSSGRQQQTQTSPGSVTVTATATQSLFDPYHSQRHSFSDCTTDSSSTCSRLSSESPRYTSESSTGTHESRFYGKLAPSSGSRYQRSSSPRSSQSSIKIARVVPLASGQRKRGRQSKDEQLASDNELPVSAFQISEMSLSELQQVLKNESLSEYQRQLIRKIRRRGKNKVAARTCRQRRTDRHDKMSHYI

[12] = Luminescence Cell-Based Dose Response to Identify Activators of 5'UTR Stem-Loop Driven Prion Protein mRNA Translation in H4-C Neuroglioblastoma Cells. [Related pubchem assays: 1829 (Project Summary), 1814 (Primary HTS)]; assay type: functional
HeLa = assay: HeLa cell cytotoxicity, dose response, cytotoxicity control for MITF activator project, CellTiter-Glo luminescence, cherry-pick samples (AID 540259); assay type: functional, cell-based; settings: Homo sapiens
[13] = Luminescence Cell-Based Dose Confirmation to Identify Activators of 5'UTR Stem-Loop Driven Alpha-Synuclein mRNA Translation in H4 Neuroglioblastoma Cells. [Related pubchem assays: 1829 (Project Summary), 1814 (Primary HTS)]; assay type: functional
[14] = Luminescence Cell-Based Dose Response to Identify Activators of Luciferase Translation or Activity in H4-C Neuroglioblastoma Cells. [Related pubchem assays: 1829 (Project Summary), 1814 (Primary HTS)]; assay type: functional
Cytochrome P450 2C9 [15] = target: T5, Cytochrome P450 2C9 (Homo sapiens, UniProt P11712)
T5 sequence (P11712 whole entry): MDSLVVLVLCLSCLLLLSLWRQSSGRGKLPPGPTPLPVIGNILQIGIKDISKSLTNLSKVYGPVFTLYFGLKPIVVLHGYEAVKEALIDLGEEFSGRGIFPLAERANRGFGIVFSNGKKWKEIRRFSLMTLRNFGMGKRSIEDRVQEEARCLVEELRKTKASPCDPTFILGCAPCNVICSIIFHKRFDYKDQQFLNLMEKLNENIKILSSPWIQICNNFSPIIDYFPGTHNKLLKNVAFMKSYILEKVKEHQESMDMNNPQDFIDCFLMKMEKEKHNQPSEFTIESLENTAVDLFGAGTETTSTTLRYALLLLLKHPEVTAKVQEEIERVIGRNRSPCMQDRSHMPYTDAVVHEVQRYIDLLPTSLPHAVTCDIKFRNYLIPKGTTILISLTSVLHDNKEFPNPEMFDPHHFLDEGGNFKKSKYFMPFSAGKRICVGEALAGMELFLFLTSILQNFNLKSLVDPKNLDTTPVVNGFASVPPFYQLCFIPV

[16] = Luminescence-based dose response cell-based high throughput screening assay for cytotoxic compounds using the IEC-6 intestinal epithelial cell line. [Related pubchem assays: 1858 (Summary AID.), 1825 (Counterscreen.), 1907 (Confirmation screen.)]; assay type: functional
[17] = cytotoxicity toward DRD oncogenic fibroblasts, dose response, cell-based, non-viral oncogenic, luminescence (AID 1934); assay type: functional; settings: Homo sapiens
cells [18] = assay type: functional, cell-based
BJ = assay: cells; assay type: functional, cell-based; settings: Homo sapiens
cells [19] = assay type: functional, cell-based; remark: listed apart in the source
[20] = target: T6, Nuclear receptor subfamily 0 group B member 1 (Homo sapiens, UniProt P51843); assay type: functional, cell-based;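 note: HEK293T cells transfected with SF-1 and DAX-1 plus StAR promoter luciferase reporter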
T6 sequence (P51843 whole entry): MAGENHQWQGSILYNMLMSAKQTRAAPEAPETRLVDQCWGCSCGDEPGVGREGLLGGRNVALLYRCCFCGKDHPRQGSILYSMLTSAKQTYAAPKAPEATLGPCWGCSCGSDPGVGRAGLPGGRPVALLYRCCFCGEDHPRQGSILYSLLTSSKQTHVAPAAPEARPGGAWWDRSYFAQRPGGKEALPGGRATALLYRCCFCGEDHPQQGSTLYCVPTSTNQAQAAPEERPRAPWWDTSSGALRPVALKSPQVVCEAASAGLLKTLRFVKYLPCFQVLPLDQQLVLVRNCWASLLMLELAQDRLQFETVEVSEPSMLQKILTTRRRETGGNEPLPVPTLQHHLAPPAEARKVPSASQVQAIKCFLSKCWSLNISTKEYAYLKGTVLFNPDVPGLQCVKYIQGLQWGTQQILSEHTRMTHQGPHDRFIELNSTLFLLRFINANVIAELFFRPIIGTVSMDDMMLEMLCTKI

cells [21] = assay type: functional, cell-based; remark: listed apart in the source
[22] = target: T7, Voltage-gated N-type calcium channel alpha-1B subunit/Amyloid beta A4 precursor protein-binding family A member 1 (Homo sapiens, UniProt Q00975+Q02410); assay type: protein assay
T7 sequence (Q00975 whole entry): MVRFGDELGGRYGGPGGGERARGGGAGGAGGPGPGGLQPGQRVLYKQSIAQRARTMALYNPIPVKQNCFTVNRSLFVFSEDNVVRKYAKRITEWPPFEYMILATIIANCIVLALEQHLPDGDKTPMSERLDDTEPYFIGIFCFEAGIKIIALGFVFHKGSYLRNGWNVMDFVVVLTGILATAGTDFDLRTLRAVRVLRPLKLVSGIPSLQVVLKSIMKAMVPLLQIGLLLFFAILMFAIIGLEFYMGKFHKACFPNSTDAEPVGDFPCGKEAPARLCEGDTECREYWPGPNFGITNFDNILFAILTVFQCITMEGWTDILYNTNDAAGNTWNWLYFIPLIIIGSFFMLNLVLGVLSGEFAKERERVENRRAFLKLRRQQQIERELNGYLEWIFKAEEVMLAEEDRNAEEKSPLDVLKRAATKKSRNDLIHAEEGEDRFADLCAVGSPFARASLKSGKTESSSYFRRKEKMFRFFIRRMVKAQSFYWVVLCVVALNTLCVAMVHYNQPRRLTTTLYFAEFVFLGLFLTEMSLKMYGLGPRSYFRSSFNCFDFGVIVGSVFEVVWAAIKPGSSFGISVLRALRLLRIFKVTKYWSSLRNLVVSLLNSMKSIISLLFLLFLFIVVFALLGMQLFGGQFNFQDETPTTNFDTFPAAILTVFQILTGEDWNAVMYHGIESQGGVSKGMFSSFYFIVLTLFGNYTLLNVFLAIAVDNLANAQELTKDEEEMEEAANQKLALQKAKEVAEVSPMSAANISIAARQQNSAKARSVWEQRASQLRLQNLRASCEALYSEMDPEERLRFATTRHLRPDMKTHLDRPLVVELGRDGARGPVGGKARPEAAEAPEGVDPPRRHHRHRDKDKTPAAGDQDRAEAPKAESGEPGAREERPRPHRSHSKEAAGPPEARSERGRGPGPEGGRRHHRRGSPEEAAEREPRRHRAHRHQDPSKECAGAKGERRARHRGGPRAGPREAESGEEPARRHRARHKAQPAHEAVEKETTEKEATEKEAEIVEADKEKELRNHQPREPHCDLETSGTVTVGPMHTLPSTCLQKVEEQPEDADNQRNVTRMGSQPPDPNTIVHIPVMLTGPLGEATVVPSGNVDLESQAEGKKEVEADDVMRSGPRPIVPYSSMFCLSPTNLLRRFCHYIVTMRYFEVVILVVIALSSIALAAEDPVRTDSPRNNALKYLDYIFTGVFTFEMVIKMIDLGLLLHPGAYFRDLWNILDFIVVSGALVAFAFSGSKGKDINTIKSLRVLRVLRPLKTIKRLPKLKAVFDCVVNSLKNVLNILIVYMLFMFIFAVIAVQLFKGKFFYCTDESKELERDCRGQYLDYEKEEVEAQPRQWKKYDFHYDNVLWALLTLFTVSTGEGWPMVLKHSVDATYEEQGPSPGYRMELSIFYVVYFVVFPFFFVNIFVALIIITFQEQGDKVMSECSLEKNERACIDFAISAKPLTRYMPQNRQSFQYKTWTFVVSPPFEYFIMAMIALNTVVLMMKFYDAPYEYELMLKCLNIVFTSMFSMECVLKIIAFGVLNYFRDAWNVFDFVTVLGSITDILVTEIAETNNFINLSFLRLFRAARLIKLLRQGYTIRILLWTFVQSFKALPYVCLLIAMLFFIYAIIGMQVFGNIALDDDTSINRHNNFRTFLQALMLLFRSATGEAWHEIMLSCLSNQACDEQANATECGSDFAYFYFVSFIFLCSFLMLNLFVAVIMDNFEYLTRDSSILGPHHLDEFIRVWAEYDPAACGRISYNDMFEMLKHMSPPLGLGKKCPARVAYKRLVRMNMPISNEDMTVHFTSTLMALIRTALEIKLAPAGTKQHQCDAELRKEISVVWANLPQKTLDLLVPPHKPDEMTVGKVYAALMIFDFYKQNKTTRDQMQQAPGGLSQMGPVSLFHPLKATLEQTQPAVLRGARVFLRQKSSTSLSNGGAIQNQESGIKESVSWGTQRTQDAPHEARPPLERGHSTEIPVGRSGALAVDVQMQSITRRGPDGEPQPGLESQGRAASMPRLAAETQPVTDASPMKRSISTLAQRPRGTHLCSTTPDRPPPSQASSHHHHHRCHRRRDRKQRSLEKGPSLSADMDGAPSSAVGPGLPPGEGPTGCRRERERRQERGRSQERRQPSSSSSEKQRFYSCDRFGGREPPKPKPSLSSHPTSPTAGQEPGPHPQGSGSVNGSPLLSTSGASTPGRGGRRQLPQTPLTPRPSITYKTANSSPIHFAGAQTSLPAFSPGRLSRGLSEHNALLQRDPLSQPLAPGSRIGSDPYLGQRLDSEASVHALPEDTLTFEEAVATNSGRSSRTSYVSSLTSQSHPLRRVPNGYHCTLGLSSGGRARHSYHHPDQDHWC
T7 sequence (Q02410 whole entry): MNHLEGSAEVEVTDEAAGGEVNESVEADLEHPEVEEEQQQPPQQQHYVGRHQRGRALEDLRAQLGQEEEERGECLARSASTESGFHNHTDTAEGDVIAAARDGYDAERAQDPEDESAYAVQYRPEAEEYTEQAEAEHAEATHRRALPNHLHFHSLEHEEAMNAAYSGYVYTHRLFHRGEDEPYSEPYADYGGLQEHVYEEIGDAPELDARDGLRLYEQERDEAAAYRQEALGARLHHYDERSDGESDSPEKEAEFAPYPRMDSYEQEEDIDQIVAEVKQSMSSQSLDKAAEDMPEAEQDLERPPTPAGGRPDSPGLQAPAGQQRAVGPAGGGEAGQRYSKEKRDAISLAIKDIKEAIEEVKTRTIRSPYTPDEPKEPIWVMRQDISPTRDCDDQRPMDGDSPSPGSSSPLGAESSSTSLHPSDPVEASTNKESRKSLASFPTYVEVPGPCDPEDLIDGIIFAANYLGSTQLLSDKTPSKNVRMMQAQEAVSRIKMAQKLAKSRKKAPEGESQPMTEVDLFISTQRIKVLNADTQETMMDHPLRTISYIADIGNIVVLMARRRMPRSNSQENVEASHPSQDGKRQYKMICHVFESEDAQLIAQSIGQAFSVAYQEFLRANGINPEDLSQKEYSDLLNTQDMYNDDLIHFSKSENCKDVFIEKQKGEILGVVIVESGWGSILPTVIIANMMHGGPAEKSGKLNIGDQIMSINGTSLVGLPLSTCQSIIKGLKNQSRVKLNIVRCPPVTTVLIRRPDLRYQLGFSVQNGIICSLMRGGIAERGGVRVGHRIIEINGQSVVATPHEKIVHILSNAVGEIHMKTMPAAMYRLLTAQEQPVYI

[23] = target: Eukaryotic translation initiation factor 4E (Mus musculus, UniProt P63073); assay: eIF4E–eIF4G protein interaction inhibitors, dose response, biochemical, TR-FRET (AID 855); assay type: functional;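 note: potency for disrupting eIF4E binding to eIF4GI seen as loss of FRET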
Chain of Eukaryotic translation initiation factor 4E (P63073 whole entry): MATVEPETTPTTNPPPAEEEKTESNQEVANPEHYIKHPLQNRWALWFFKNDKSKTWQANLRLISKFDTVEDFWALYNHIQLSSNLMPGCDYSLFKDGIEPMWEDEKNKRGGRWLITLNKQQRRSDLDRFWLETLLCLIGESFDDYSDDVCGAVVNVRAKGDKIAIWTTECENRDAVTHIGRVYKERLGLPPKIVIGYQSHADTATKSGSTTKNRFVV

[24] = target: Glucose-6-phosphate 1-dehydrogenase (Homo sapiens, UniProt P11413); assay: human G6PD enzyme inhibitors, dose response, selectivity assay for P. falciparum G6PD inhibitor project, biochemical, fluorescence (AID 504792); assay type: functional
Chain of Glucose-6-phosphate 1-dehydrogenase (P11413 whole entry): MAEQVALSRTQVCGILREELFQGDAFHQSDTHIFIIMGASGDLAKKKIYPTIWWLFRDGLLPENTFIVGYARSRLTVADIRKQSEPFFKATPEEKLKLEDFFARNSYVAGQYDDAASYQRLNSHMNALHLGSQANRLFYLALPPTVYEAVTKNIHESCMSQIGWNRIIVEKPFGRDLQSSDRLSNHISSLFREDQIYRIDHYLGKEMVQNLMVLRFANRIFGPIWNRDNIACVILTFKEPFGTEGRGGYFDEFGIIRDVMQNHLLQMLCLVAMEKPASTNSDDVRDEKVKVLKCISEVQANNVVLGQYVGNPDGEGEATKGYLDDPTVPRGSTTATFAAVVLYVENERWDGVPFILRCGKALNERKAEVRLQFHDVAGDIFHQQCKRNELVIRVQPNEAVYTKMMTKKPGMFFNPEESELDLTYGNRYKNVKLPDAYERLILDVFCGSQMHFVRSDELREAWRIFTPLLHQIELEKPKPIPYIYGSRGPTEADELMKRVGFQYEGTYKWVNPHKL

[25] = target: T7, Voltage-gated N-type calcium channel alpha-1B subunit/Amyloid beta A4 precursor protein-binding family A member 1; assay type: protein assay; remark: listed apart in the source
cells [26] = assay type: functional
[27] = A Cell Based Secondary Assay To Explore Cytotoxicity of Compounds that Sensitize Mycobacterium Tuberculosis to Beta-Lactam Antibiotics.; assay type: functional
HEK293 = assay: inhibitors of LMP1-driven NF-kB reporter, dose response, cell-based, HEK293, luciferase, cherry-pick (AID 588343); assay type: functional; settings: Homo sapiens
Cytochrome P450 2C9 [28] = target: T5, Cytochrome P450 2C9; settings: Potency

## CC(C)(C)OC(=O)NN=C(S)NC1CCCCC1
[1]
  IC50: > 100 µM (active)

## CCOc1ccc2nc(NC(=O)C3(C)CC3(Br)Br)sc2c1 (centres undefined)
Cells [2]
  IC50: 47.8 µM (active)
[3]
  CC50: 19.4 µM (active)

## O=C(O)[C@@H]1[C@@H]2C[C@H]3c4[nH]c5ccccc5c4CCN3C[C@@H]2CC[C@@H]1O
Cytochrome P450 2D6
  AC50: 31.6 µM (inconclusive)

## O=C(c1cccc([N+](=O)[O-])c1)N1CC2C3C=CC(C3)C2C1 (centres undefined)
[4]
  AC50: 7.93 µM (active)

## Cc1cc(C)n(-c2nnc(N3CCN(c4ccc(F)cc4)CC3)nn2)n1
[5]
  IC50: > 50 µM (not active)
[6]
  IC50: > 50 µM (not active)

## COc1ccccc1C(=O)Nc1nnc(-c2ccc(F)cc2)o1
[7]
  EC50: > 50 µM (active)

## CCOC(=O)c1c(CSc2ccccc2)n(C)c2ccc(O)c(CN3CCOCC3)c12
[8]
  IC50: 1.94 µM (active)
[9]
  IC50: > 35 µM (not active)

## COc1ccc(N(C(=O)C2CCCCC2)S(=O)(=O)c2cccc3cccnc23)cc1
[8]
  IC50: > 35 µM (not active)
[9]
  IC50: > 35 µM (not active)

## C#CCOCCOCCOCCNc1nc(N2CCN(C(=O)CCCCCCCCCCNC(=O)[C@@H]([C@H](C)O)n3cc(C)nn3)CC2)nc(N2CCN(C(=O)CCCCCCCCCCNC(=O)[C@@H]([C@H](C)O)n3cc(C)nn3)CC2)n1
Cells [2]
  IC50: 15.1 µM (active)

## O=C(Nc1ccccc1)O/N=C/c1ccc(F)cc1
H4
  EC50: 8.27 µM (active)
[10]
  EC50: < 0.1 µM (active)
[11]
  EC50: < 0.1 µM (active)
Protein skinhead-1
  IC50: > 100 µM (inactive)
[12]
  EC50: 0.477 µM (active)
HeLa
  AC50: 54.2 µM (active)
[13]
  EC50: 0.321 µM (active)
[14]
  EC50: 0.372 µM (active)

## CC1=NN(c2ccccc2)C(=O)/C1=C\c1c(C)[nH]n(-c2ccccc2)c1=O
Cytochrome P450 2C9 [15]
  AC50: 2.51 µM (inconclusive)
[1]
  IC50: > 100 µM (active)

## O=C(N/N=C/C(Br)=C\c1ccccc1)c1[nH]nc2c1CCC2
[16]
  IC50: 0.183 µM (active)
[17]
  EC50: 0.3 µM (inconclusive)
Cells [18]
  IC50: > 67.5 µM (inactive)
BJ
  EC50: 0.223 µM (inconclusive)
Cells [19]
  EC50: 17.8 µM (active)
[20]
  IC50: > 0.834 µM (active)
Cells [21]
  EC50: > 350 µM (not active)

## COc1cc(/N=c2\ssnc2Cl)cc(OC)c1
[22]
  IC50: 6.42 µM (active)
[23]
  IC50: 22.6 µM (active)
[6]
  IC50: 19.6 µM (active)
[24]
  IC50: > 80 µM (inactive)
[25]
  IC50: 0.738 µM (active)
Cells [26]
  IC50: 39.2 µM (active)

## COc1cccc(/C=N/NC(=O)CSCC(=O)Nc2ccccc2)c1O
Cells [19]
  EC50: > 350 µM (not active)
Cells [21]
  EC50: 12.7 µM (active)
[27]
  CC50: 21.3 µM (active)
HEK293
  AC50: 25.4 µM (active)

## O=C(N/N=C/c1cccnc1)c1cccc(Cl)c1
[7]
  EC50: > 50 µM (active)

## Cc1ccc(OCC(=O)N/N=C/c2cn(C)c3ccccc23)cc1
[27]
  CC50: > 40 µM (active)

## O=c1cc(-c2ccccc2)oc2c1ccc1ccccc12 [ALPHA-NAPHTHOFLAVONE]
Cytochrome P450 2C9 [28]
  AC50: 7.94 µM (inconclusive)
Cytochrome P450 2D6
  AC50: 12.6 µM (inconclusive)
